According to US20060234909A1, “Compositions and methods for increasing drug efficiency” (priority 2003, published 2006):
Primed or numbered codes have the meaning given here. * marks the point of attachment. 10Ca‑PXL = paclitaxel conjugated at C10 via a carbamate; 10Ca‑PXL″ = paclitaxel attached at C10 via carbamate; 3Am‑VBL = vinblastine (VBL) conjugate; 3Am‑VBL″ = vinblastine conjugate; PEG(11) = PEG(11) linker; DMAB = not defined here; 3Am = not defined here; Cbz = O=C(OCc1ccccc1)*; PEG(13) = PEG13 linker; Piv = CC(C)(C)C(=O)*; OBn = c1ccc(CO*)cc1; VBL = vinblastine

What was measured:
[1] = Serum stability in RPMI1640 medium containing 10% fetal bovine serum; format: in vitro ADME
Experimental: The stability of conjugates was measured in RPMI1640 cell culture medium containing 10% fetal bovine serum. The serum-containing medium was pre-warmed at 37° C. for 3 min prior to addition of test articles. Test articles, prepared in DMSO as 5 mM stocks, were added to the cell culture media to a final concentration of 10 μM. Aliquots ([…]) were withdrawn in triplicate at 0, 4, 8, 24 and 72 hours and combined with the same volume of ice-cold acetonitrile to terminate the reaction. The mixture was centrifuged at 2,000×g for 10 minutes. One part of the supernatant was mixed with four parts of deionized water to bring down the percentage of organic solvent. The diluted samples were then assayed by LC/MS for the test article. The natural log of the percent remaining was plotted versus time. A linear fit was used to determine the rate constant. The fit was truncated after the percent of remaining test article was less than 10%. The elimination half-lives associated with the disappearance of test articles were determined to compare their relative stability. The assays were carried out by Absorption Systems (Exton, Pa.).

tubulin = assay: Fluorescence-based tubulin polymerization assay (MPA; enhancement for paclitaxel, inhibition for vinblastine); format: biochemical
Method in brief: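 Tubulin polymerisation was followed by fluorescence (ex 360/em 405 nm) with 1 mg/ml BSA in all assays. For paclitaxel conjugates, glycerol was omitted. Parent drugs and conjugates were tested at 0.75, 1.5, 3 and 10 micromolar final, and values come from the linear range of the dose responses.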

HUVEC = assay: Cytotoxicity assay (monolayer), HUVEC; format: cell-based; conditions: ML (monolayer), read-out: HUVEC (EC50 Ave) ML
[2] = test system: HT-29 colorectal carcinoma; assay: Cytotoxicity assay (monolayer), HT-29; format: cell-based; conditions: HT29, ML (monolayer); read-out: HT29 (EC50 Ave) ML;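 further: monolayer cultures tested in triplicate, compound exposure for three days against DMSO vehicle controls, EC50 fitted from dose-response curves and averaged across all tests and lots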
[3] = test system: Normal human foreskin fibroblasts (HFF); conditions: read-out: HFF (EC50 Ave) ML; HFF, ML (monolayer)
Akt = Akt (Homo sapiens, UniProt P31749); assay: Akt kinase assay (PKLight ATP utilization, substrate phosphorylation as % of parent peptide); format: biochemical; parameters: purchased Upstate (Charlottesville, Va.) 14-276
Akt, sequence (P31749 whole entry): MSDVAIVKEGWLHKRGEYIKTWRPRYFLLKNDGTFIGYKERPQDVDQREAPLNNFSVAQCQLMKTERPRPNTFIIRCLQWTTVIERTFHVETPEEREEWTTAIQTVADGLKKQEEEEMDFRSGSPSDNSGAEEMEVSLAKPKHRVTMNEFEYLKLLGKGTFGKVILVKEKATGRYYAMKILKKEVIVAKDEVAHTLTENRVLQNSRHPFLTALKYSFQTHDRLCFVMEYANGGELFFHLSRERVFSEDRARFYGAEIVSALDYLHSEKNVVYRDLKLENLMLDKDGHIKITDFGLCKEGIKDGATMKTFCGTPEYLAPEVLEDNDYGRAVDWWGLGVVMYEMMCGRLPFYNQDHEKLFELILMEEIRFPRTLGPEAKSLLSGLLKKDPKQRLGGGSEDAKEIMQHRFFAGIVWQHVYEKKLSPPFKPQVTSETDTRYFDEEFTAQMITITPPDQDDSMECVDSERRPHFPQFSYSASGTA
Experimental: Another test may involve monitoring the consumption of ATP. For example, ATP concentrations at time 0 or after 4 hour incubation may be monitored by luciferase reaction (PKLight kit obtained from Cambrex Corporation, One Meadowlands Plaza, East Rutherford, N.J. 07073), which generate a luminescence readout in the presence of ATP. Assays are initiated by mixing a kinase and a peptide in the presence of 40 μM ATP. After 4 hour of incubation at 30° C., PKLight reagent is added and mixed well, and luminescence readout measured. The rate of peptide phosphorylation is then directly related to the rate of decrease in the observed luminescence. Based on the first test, linkers of appropriate lengths and peptides with an effective amount of kinase activity which may be expected to be retained in the drug conjugate may be found.
Human Src (#14-326) and Akt (#14-276) kinases were purchased from Upstate (Charlottesville, Va.). Kinase reactions were carried out in 50 μl kinase reaction cocktail (25 mM Tris-HCl, pH 7.5, 5 μM β-glycerophosphate, 2 mM DTT, 0.1 mM Na3VO4, 10 mM MgCl2, 1 mg/ml BSA, […], 0.5 to 1.0 units enzyme). Substrates (peptide or drug-peptide conjugate in […]) were added (25, 50 and 100 μM) and the reaction was incubated for 2-5 hours at 30° C. PKLight reagent (23 μl) (Cambrex BioSciences, Rockland, Me.) was mixed with […] of the above kinase reaction and ATP utilization relative to no substrate and no ATP controls was determined by measuring luminescence with a SpectraMax Gemini EM plate reader (Molecular Devices, Sunnyvale, Calif.). Peptide substrates for Src and Akt have been described. For examples, see Lou et al. Letters in Peptide Science, 2, 289-296 (1995); Lou et al. Bioorganic & Medicinal Chemistry, 4, 677-682 (1996); Alessi et al. FEBS Letters, 399, 333-338 (1996). Substrate phosphorylation potential was determined from the linear portion of the substrate concentration dose response as a percentage of the activity observed with the parent peptide used for drug conjugation.

MCF-7 breast carcinoma = assay: Cytotoxicity assay (monolayer), MCF-7; format: cell-based; conditions: MCF7, ML (monolayer); read-out: MCF7 (EC50 Ave) ML;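 further: cells treated 72 h with 6-8 compound doses versus DMSO vehicle controls, EC50 fitted by 4-parameter dose-response curves, averaged across all tests and lots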
HT-29 cells = conditions: read-out: HT29 (EC50 Ave) SA; HT29, SA (soft agar)
MCF-7 cells = conditions: read-out: MCF7 (EC50 Ave) SA; MCF7, SA (soft agar)

Molecule	Relative Percent Remaining at 0 hr ([1]; 0 hr) [%]	remaining at 4 h, 10 μM ([1]; bovine, 4 hr, read-out: Relative Percent Remaining at 4 hr) [%]	remaining at 8 h, 10 μM ([1]; bovine, 8 hr, read-out: Relative Percent Remaining at 8 hr) [%]	remaining at 24 h, 10 μM ([1]; bovine, 24 hr, read-out: Relative Percent Remaining at 24 hr) [%]	remaining at 72 h, 10 μM ([1]; bovine, 72 hr, read-out: Relative Percent Remaining at 72 hr) [%]	Ave. MPA Act. (tubulin)	EC50 (HUVEC) [nM]	EC50 [2] [nM]	EC50 [3] [nM]	Ave. Akt Kinase Act. (Akt)	EC50 (MCF-7 breast carcinoma) [nM]	EC50 (HT-29 cells) [nM]	EC50 (MCF-7 cells) [nM]
CC(=O)O[C@H]1C(=O)[C@@]2(C)[C@H]([C@H](OC(=O)c3ccccc3)[C@]3(O)C[C@H](OC(=O)[C@H](O)[C@@H](NC(=O)c4ccccc4)c4ccccc4)C(C)=C1C3(C)C)[C@]1(OC(C)=O)CO[C@@H]1C[C@@H]2O [Paclitaxel, reference compound]	100	73	59	28	< 3	–	–	–	–	–	–	–	–
Ac-GRPRTSSFAEG-3Am-VBL (Ac-GRPRTSSFAEG-{3Am-VBL}; reading uncertain; also: TFA salt, printed as Ac-GRPRTSSFAEG-3Am-VBL)	–	–	–	–	–	C (C>80)	< 20	20 to 100	20 to 100	C (C>40)	20 to 100	–	–
Ac-RPRTSSF-PEG(11)-3Am-VBL (N-acetyl; PEG(11) linker; vinblastine conjugate)	–	–	–	–	–	C (C>80)	> 100	20 to 100	20 to 100	C (C>40)	20 to 100	–	–
Ac-RPRTSSF-PEG(13)-10Ca-PXL (N-acetyl; PEG(13) linker; paclitaxel conjugate)	–	–	–	–	–	C (C>80)	> 100	> 100	> 100	C (C>40)	> 100	20 to 100	> 100
Ac-RSRTSSF-PEG(13)-10Ca-PXL (N-acetyl; PEG(13) linker; paclitaxel conjugate)	–	–	–	–	–	C (C>80)	–	–	–	C (C>40)	–	–	–
BOC-RPRTSSF-PEG(11)-3Am-VBL (N-BOC; PEG(11) linker; vinblastine conjugate)	–	–	–	–	–	C (C>80)	20 to 100	20 to 100	20 to 100	C (C>40)	20 to 100	–	–
BOC-RPRTSSF-PEG(13)-10Ca-PXL (N-BOC; PEG(13) linker; paclitaxel conjugate)	–	–	–	–	–	C (C>80)	> 100	–	20 to 100	C (C>40)	–	> 100	–
CBz-GRPRTSSFAE(Bzl)G-3Am-VBL	–	–	–	–	–	B (B=50-80)	< 20	20 to 100	20 to 100	C (C>40)	20 to 100	20 to 100	20 to 100
CBz-GRPRTSSFAEG-3Am-VBL (Cbz-GRPRTSSFAEG-{3Am-VBL}; reading uncertain; also: printed as CBz-GRPRTSSFAEG-3Am-VBL)	–	–	–	–	–	C (C>80)	> 100	> 100	> 100	C (C>40)	> 100	–	–
CBz-RPRTSSF-PEG(13)-10Ca-PXL (N-CBz; PEG(13) linker; paclitaxel conjugate)	–	–	–	–	–	C (C>80)	> 100	20 to 100	> 100	C (C>40)	> 100	20 to 100	20 to 100
CBz-RPRTSSF-PEG(13)-10Ca-PXL x (N-CBz; PEG(13) linker; paclitaxel conjugate; salt)	–	–	–	–	–	C (C>80)	> 100	> 100	> 100	C (C>40)	> 100	> 100	> 100
CBz-RPRTSSF-PEG(29)-3Am-VBL (N-CBz; PEG(29) linker; vinblastine conjugate)	–	–	–	–	–	B (B=50-80)	> 100	> 100	> 100	C (C>40)	> 100	–	> 100
Ph(C═O)-RPRTSSF-PEG(11)-3Am-VBL (N-benzoyl; PEG(11) linker; vinblastine conjugate)	–	–	–	–	–	C (C>80)	20 to 100	20 to 100	20 to 100	C (C>40)	20 to 100	–	–
Pv-GRPRAAAFAEG-PEG(13)-10Ca-PXL (Piv-GRPRAAAFAEG-{PEG(13)-10Ca‑PXL}; also: 2 TFA salt)	–	–	–	–	–	C (C>80)	> 100	> 100	> 100	C (C>40)	> 100	20 to 100	20 to 100
Pv-GRPRTSSFAE(Bzl)G-PEG(13)-10Ca-PXL (Piv-GRPRTSSFAE(OBn)G-{PEG(13)-10Ca‑PXL″})	–	–	–	–	–	C (C>80)	> 100	> 100	> 100	C (C>40)	> 100	> 100	> 100
Pv-GRPRTSSFAE(DMAB)G-3Am-VBL (Piv-GRPRTSSFAE(DMAB)G-{3Am‑VBL″}; not fully specified; reading uncertain)	–	–	–	–	–	C (C>80)	> 100	> 100	> 100	C (C>40)	> 100	–	–
Pv-GRPRTSSFAEG-3Am-VBL (Piv-GRPRTSSFAEG-{3Am‑VBL}; also: 2 TFA salt)	–	–	–	–	–	C (C>80)	> 100	> 100	> 100	C (C>40)	> 100	–	–
Pv-GRPRTSSFAEG-PEG(13)-10Ca-PXL (Piv-GRPRTSSFAEG-{PEG(13)-10Ca‑PXL}; also: TFA salt)	–	–	–	–	–	C (C>80)	> 100	> 100	> 100	C (C>40)	> 100	–	–
Pv-RSRKESY-PEG(13)-10Ca-PXL (Piv-RSRKESY-{PEG(13)-10Ca‑PXL}; also: 2 TFA salt)	–	–	–	–	–	C (C>80)	–	–	–	C (C>40)	–	–	–
Pv-RSRTSSF-PEG(11)-3Am-VBL (Piv-RSRTSSF-{PEG(11)-3Am‑VBL}; also: 2 TFA salt)	–	–	–	–	–	C (C>80)	> 100	> 100	> 100	C (C>40)	> 100	–	–
Pv-RSRTSSFAEG-PEG(13)-10Ca-PXL (Piv-RSRTSSFAEG-{PEG(13)-10Ca‑PXL}; also: 2 TFA salt)	–	–	–	–	–	C (C>80)	–	–	–	C (C>40)	–	–	–
